Measurements taken from patent US20110124606A1, “SENSE-IMPROVING AGENT” (SNOW BRAND MILK PRODUCTS CO., LTD., priority 2007, published 2011).

Columns and labels:
[1] = test system: Healthy elderly persons who suffered deterioration in sensation in the hands; assay: Questionnaire survey on improvement in sensation, oral intake of sphingomyelin (Test Example 5); format: in vivo, human; details: subjects of 15
Experimental: Healthy elderly persons (average age: 75±3) who suffered deterioration in sensation in the hands were divided into three groups (one group: 15 subjects). The subjects took the sphingomyelin obtained in Example 4 in an amount of 0 mg, 4 mg, or 8 mg for 12 weeks. The pain sensation in the palm and the arch of the foot was measured with 4 criteria (normal, deteriorations I, II, and III) before the intake and after the intake for 12 weeks with reference to the pain sensation in the medial side of the arm using a pain/touch-pressure sensation measuring device (“Algesiometer” manufactured by Intercross Ltd.) in accordance with the instruction manual. After the intake for 12 weeks, a questionnaire survey on improvement in sensation in the hands was carried out to each elderly person. The measurement method and the evaluation method are the same as those employed in Test Example 4.

[2] = test system: Healthy elderly persons who suffered deterioration in sensation in the hands; assay: Pain sensation in palm and foot by Algesiometer, oral intake of sphingomyelin (Test Example 5); format: in vivo, human; details: for Hand Foot bottom sensation measurement (before intake): Average value / Hand sensation measurement (before intake): Average value / Hand Foot bottom sensation measurement (after intake for 12 weeks): Average value / Hand sensation measurement (after intake for 12 weeks): Average value: Normal 0 to Deterioration III 3 points; for Hand Foot bottom sensation measurement (before intake): Deterioration I / Hand Foot bottom sensation measurement (before intake): Deterioration II / Hand Foot bottom sensation measurement (before intake): Deterioration III / Hand Foot bottom sensation measurement (before intake): Normal / Hand sensation measurement (before intake): Deterioration I / Hand sensation measurement (before intake): Deterioration II / Hand sensation measurement (before intake): Deterioration III / Hand sensation measurement (before intake): Normal / Hand Foot bottom sensation measurement (after intake for 12 weeks): Deterioration I / Hand Foot bottom sensation measurement (after intake for 12 weeks): Deterioration II / Hand Foot bottom sensation measurement (after intake for 12 weeks): Deterioration III / Hand Foot bottom sensation measurement (after intake for 12 weeks): Normal / Hand sensation measurement (after intake for 12 weeks): Deterioration I / Hand sensation measurement (after intake for 12 weeks): Deterioration II / Hand sensation measurement (after intake for 12 weeks): Deterioration III / Hand sensation measurement (after intake for 12 weeks): Normal: subjects per criterion, 15 per group; for sensation in the palm and the bottom of the foot (in words): 12 weeks
Experimental: The pain sensation was evaluated using five pins that differ in thickness in combination with five fulcrum positions. The thinnest pin 1 was rolled along the medial side of the arm, and the subject was asked about the degree of normal pain sensation. The pin 1 was then rolled along the palm and the bottom of the foot while sequentially changing the holder fulcrum position to determine the fulcrum position at which the same pain sensation degree as the first pain sensation occurred. The Algesiometer is designed so that the pain sensations with same degree occur between when rolling the pin 1 (fulcrum: 50 g) along the medial side of the arm and when rolling the pin 2 (fulcrum: 50 g) along the palm. The pain sensation was evaluated as follows in accordance with the instruction manual. The pain sensation was evaluated by points, and the average points were calculated. Normal (0 points): The same pain sensation occurred when rolling the pin 2 (fulcrum: 50 g). Deterioration I (1 point): The same pain sensation occurred when rolling the pin 1 (fulcrum: 50 g). Deterioration II (2 points): The same pain sensation occurred when rolling the pin 1 (fulcrum: 60 g): Deterioration III (3 points): The same pain sensation occurred when rolling the pin 1 (fulcrum: 70 g): Healthy elderly persons (average age: 75±3) who suffered deterioration in sensation in the hands were divided into three groups (one group: 15 subjects). The subjects took the sphingomyelin obtained in Example 4 in an amount of 0 mg, 4 mg, or 8 mg for 12 weeks. The pain sensation in the palm and the arch of the foot was measured with 4 criteria (normal, deteriorations I, II, and III) before the intake and after the intake for 12 weeks with reference to the pain sensation in the medial side of the arm using a pain/touch-pressure sensation measuring device (“Algesiometer” manufactured by Intercross Ltd.) in accordance with the instruction manual. After the intake for 12 weeks, a questionnaire survey on improvement in sensation in the hands was carried out to each elderly person. The measurement method and the evaluation method are the same as those employed in Test Example 4.

[3] = test system: PC-12 cells; assay: Cell differentiation-promoting activity: PC-12 cells cultured in culture supernatant of treated 3T3 cells; format: cell-based; details: supernatant of 3T3 cells cultured two days with 200 μg/l
Experimental: 3T3 cells, which is fibroblast cell strain known to be present in skin, were cultured for two days under the condition that the milk-derived phospholipid-containing composition of Example 1 or 2 was added at a concentration of 200 μg/l (Example 1: Group A, Example 2: Group B). As a control, 3T3 cells were cultured for two days without adding the milk-derived phospholipid-containing composition obtained in Example 1 or 2 (Group C). PC-12 cells (nerve model cells) were cultured using the culture supernatant thereof, and morphological differentiation of the PC-12 cells was observed. […] It was confirmed that 95% or more of the cells were differentiated when using the culture supernatant of the group A or B. On the other hand, the PC-12 cells were not differentiated when using the culture supernatant of the group C. No differentiation was observed through an optical microscope even though the experiment was repeated several times. It was thus confirmed that the milk-derived phospholipid-containing compositions obtained in Examples 1 and 2 promote differentiation of the PC-12 cells which was nerve model cells.
3T3 cells, which is fibroblast cell strain known to be present in skin, were cultured for two days under the condition that the sphingomyelin obtained in Example 3 was added at a concentration of 200 μg/l (group A). […]

Substance: sphingomyelin [Example 4]
- Foot sensation: Improved ([1]; intake 4 mg for 12 weeks): 5
- Foot sensation: Same ([1]; intake 4 mg for 12 weeks): 9
- Foot sensation: Worsened ([1]; intake 4 mg for 12 weeks): 1
- Hand sensation: Improved ([1]; intake 4 mg for 12 weeks): 6
- Hand sensation: Same ([1]; intake 4 mg for 12 weeks): 7
- Hand sensation: Worsened ([1]; intake 4 mg for 12 weeks): 2
- Foot sensation: Improved ([1]; intake 8 mg for 12 weeks): 8
- Foot sensation: Same ([1]; intake 8 mg for 12 weeks): 7
- Foot sensation: Worsened ([1]; intake 8 mg for 12 weeks): 0
- Hand sensation: Improved ([1]; intake 8 mg for 12 weeks): 10
- Hand sensation: Same ([1]; intake 8 mg for 12 weeks): 4
- Hand sensation: Worsened ([1]; intake 8 mg for 12 weeks): 1
- Hand Foot bottom sensation measurement (before intake): Average value ([2]; 4 mg group): 2.1 points
- Hand sensation measurement (before intake): Average value ([2]; 4 mg group): 2.1 points
- Hand Foot bottom sensation measurement (before intake): Deterioration I ([2]; 4 mg group): 3
- Hand Foot bottom sensation measurement (before intake): Deterioration II ([2]; 4 mg group): 7
- Hand Foot bottom sensation measurement (before intake): Deterioration III ([2]; 4 mg group): 5
- Hand Foot bottom sensation measurement (before intake): Normal ([2]; 4 mg group): 0
- Hand sensation measurement (before intake): Deterioration I ([2]; 4 mg group): 3
- Hand sensation measurement (before intake): Deterioration II ([2]; 4 mg group): 7
- Hand sensation measurement (before intake): Deterioration III ([2]; 4 mg group): 5
- Hand sensation measurement (before intake): Normal ([2]; 4 mg group): 0
- Hand Foot bottom sensation measurement (before intake): Average value ([2]; 8 mg group): 2.3 points
- Hand sensation measurement (before intake): Average value ([2]; 8 mg group): 2.3 points
- Hand Foot bottom sensation measurement (before intake): Deterioration I ([2]; 8 mg group): 2
- Hand Foot bottom sensation measurement (before intake): Deterioration II ([2]; 8 mg group): 7
- Hand Foot bottom sensation measurement (before intake): Deterioration III ([2]; 8 mg group): 6
- Hand Foot bottom sensation measurement (before intake): Normal ([2]; 8 mg group): 0
- Hand sensation measurement (before intake): Deterioration I ([2]; 8 mg group): 2
- Hand sensation measurement (before intake): Deterioration II ([2]; 8 mg group): 6
- Hand sensation measurement (before intake): Deterioration III ([2]; 8 mg group): 7
- Hand sensation measurement (before intake): Normal ([2]; 8 mg group): 0
- sensation in the palm and the bottom of the foot (in words) ([2]; intake 4 mg): tended to be improved
- Hand Foot bottom sensation measurement (after intake for 12 weeks): Average value ([2]; intake 4 mg): 1.7 points
- Hand sensation measurement (after intake for 12 weeks): Average value ([2]; intake 4 mg): 1.5 points
- Hand Foot bottom sensation measurement (after intake for 12 weeks): Deterioration I ([2]; intake 4 mg): 5
- Hand Foot bottom sensation measurement (after intake for 12 weeks): Deterioration II ([2]; intake 4 mg): 7
- Hand Foot bottom sensation measurement (after intake for 12 weeks): Deterioration III ([2]; intake 4 mg): 2
- Hand Foot bottom sensation measurement (after intake for 12 weeks): Normal ([2]; intake 4 mg): 1
- Hand sensation measurement (after intake for 12 weeks): Deterioration I ([2]; intake 4 mg): 5
- Hand sensation measurement (after intake for 12 weeks): Deterioration II ([2]; intake 4 mg): 6
- Hand sensation measurement (after intake for 12 weeks): Deterioration III ([2]; intake 4 mg): 2
- Hand sensation measurement (after intake for 12 weeks): Normal ([2]; intake 4 mg): 2
- sensation in the palm and the bottom of the foot (in words) ([2]; intake 8 mg): significantly improved
- Hand Foot bottom sensation measurement (after intake for 12 weeks): Average value ([2]; intake 8 mg): 1.6 points
- Hand sensation measurement (after intake for 12 weeks): Average value ([2]; intake 8 mg): 1.3 points
- Hand Foot bottom sensation measurement (after intake for 12 weeks): Deterioration I ([2]; intake 8 mg): 7
- Hand Foot bottom sensation measurement (after intake for 12 weeks): Deterioration II ([2]; intake 8 mg): 4
- Hand Foot bottom sensation measurement (after intake for 12 weeks): Deterioration III ([2]; intake 8 mg): 3
- Hand Foot bottom sensation measurement (after intake for 12 weeks): Normal ([2]; intake 8 mg): 1
- Hand sensation measurement (after intake for 12 weeks): Deterioration I ([2]; intake 8 mg): 7
- Hand sensation measurement (after intake for 12 weeks): Deterioration II ([2]; intake 8 mg): 3
- Hand sensation measurement (after intake for 12 weeks): Deterioration III ([2]; intake 8 mg): 2
- Hand sensation measurement (after intake for 12 weeks): Normal ([2]; intake 8 mg): 3

Substance: sphingomyelin [Example 3]
- morphological differentiation of PC-12 cells [3]: highly differentiated
- differentiation rate of PC-12 cells ([3]; optical microscope): ≥ 94%
